Test results reported in ChEMBL document CHEMBL3886365, “Substituted oxadiazole compounds” (2015).

How the values were obtained:
[1] = molecular target: Sphingosine 1-phosphate receptor 1 (Homo sapiens, UniProt P21453); assay: (§1) GTPgammaS Binding Assay: Compounds were loaded in a 384 Falcon v-bottom plate (0.5 ul/well in a 11 point, 3-fold dilution). Membranes prepared from S1P1/CHO cells or EDG3-Ga15-bla HEK293T cells were added to the compound plate (40 ul/well, final protein 3 ug/well) with MULTIDROP. [35S]GTP (1250 Ci/mmol, Perkin Elmer) was diluted in assay buffer: 20 mM HEPES, pH7.5, 10 mM MgCl2, 150 mM NaCl, 1 mM EGTA, 1 mM DTT, 10 uM GDP, 0.1% fatty acid free BSA, and 10 ug/ml Saponin to 0.4 nM. 40 ul of the [35S] GTP solution was added to the compound plate with a final concentration of 0.2 nM. The reaction was kept at room temperature for 45 min. At the end of incubation, all the mixtures in the compound plate were transferred to Millipore 384-well FB filter plates via the VELOCITY11 Vprep liquid handler. The filter plate was washed with water 4 times by using the manifold Embla plate washer and dried at 60° C. for 45 min. MicroScint 20 scintillation fluid (30 ul) was added to each well.; format: functional, cell membranes
Sphingosine 1-phosphate receptor 1, sequence (P21453 whole entry): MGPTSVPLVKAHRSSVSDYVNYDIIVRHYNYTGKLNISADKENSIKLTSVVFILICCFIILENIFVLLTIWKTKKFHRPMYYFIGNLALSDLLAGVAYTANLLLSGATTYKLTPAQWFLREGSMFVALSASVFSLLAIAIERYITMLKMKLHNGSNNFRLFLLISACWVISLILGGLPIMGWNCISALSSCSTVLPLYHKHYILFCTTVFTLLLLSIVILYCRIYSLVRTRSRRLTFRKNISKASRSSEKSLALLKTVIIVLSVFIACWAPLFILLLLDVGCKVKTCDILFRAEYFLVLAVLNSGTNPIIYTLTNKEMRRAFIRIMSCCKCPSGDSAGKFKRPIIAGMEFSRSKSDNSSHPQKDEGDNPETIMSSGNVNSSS

[2] = molecular target: Sphingosine 1-phosphate receptor 3 (Homo sapiens, UniProt Q99500); assay: as §1; format: functional, cell membranes
Sphingosine 1-phosphate receptor 3, sequence (Q99500 whole entry): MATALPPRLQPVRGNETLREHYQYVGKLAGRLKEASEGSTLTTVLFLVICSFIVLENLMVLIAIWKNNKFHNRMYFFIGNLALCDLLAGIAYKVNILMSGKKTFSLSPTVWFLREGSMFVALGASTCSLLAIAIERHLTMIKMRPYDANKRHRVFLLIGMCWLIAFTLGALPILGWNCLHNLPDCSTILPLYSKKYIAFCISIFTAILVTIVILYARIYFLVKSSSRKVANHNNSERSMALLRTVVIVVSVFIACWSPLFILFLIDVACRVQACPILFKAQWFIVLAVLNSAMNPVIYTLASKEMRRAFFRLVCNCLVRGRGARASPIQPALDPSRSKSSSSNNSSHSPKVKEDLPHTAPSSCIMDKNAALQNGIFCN

EC50 [1]: 5.7 µM
EC50 [2]: > 62 µM
Structure (SMILES): FC(F)(F)Oc1ccc(-c2noc(CCC3(c4ccccc4)CCCCC3)n2)cc1
